Experimental data taken from ChEMBL document CHEMBL1131414, “Dual D2-receptor and beta2-adrenoceptor agonists for the treatment of airway diseases. 1. Discovery and biological evaluation of some 7-(2-aminoethyl)-4-hydroxybenzothiazol-2(3H)-one analogues” (J Med Chem, 1998).
Active and inactive are the calls of the source. The rule behind the calls is not given here.

Tests used:
[1] = biological target: Beta-2 adrenergic receptor (Cavia porcellus) (UniProt Q8K4Z4); assay: Tested in vitro for binding activity to Beta-2 adrenergic receptor in guinea pig trachea (GPT).; format: tissue-based
Chain of Beta-2 adrenergic receptor (Cavia porcellus) (Q8K4Z4 whole entry, looked up): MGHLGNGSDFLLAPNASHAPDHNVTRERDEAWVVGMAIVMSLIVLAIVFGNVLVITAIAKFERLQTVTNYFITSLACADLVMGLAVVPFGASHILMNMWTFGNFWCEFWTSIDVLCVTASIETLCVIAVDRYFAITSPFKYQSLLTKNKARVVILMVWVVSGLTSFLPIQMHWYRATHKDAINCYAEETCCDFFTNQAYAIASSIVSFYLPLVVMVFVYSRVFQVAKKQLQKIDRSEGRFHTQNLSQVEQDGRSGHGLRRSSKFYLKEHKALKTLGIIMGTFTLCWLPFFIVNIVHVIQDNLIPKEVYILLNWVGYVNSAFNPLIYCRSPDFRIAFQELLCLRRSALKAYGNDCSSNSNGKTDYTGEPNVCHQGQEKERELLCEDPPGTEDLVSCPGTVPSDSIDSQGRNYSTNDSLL

[2] = biological target: Adrenergic receptor alpha-1 (Homo sapiens) (UniProt P35348+P25100+P35368); assay: Tested in vitro for binding activity to Alpha-1 adrenergic receptor in field stimulated rabbit ear artery (REA).; details: Oryctolagus cuniculus; target entry is the homologue from another species
[3] = biological target: D(2) dopamine receptor (Bos taurus) (UniProt P20288); assay: Tested in vitro for binding activity to Dopamine receptor D2 in bovine pituitary membranes (D2-LB); format: cell membranes
Chain of D(2) dopamine receptor (Bos taurus) (P20288 whole entry): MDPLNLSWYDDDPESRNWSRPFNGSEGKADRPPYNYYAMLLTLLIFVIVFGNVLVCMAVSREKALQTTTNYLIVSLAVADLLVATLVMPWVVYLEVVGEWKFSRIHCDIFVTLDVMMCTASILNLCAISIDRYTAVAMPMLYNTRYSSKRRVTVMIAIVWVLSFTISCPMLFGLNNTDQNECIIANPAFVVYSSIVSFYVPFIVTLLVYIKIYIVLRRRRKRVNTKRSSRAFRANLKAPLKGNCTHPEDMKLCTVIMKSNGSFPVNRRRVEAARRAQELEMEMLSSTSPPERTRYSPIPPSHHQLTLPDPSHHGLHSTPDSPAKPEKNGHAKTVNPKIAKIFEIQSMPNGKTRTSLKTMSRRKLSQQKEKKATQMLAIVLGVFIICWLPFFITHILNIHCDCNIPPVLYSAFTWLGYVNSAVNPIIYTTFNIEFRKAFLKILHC

[4] = biological target: D(2) dopamine receptor (Homo sapiens) (UniProt P14416); assay: Tested in vitro for binding activity to Dopamine receptor D2 in field stimulated rabbit ear artery (D2-REA); f denotes 'Data compromised by high […] agonist activity'; details: Oryctolagus cuniculus; target entry is the homologue from another species
Chain of D(2) dopamine receptor (Homo sapiens) (P14416 whole entry): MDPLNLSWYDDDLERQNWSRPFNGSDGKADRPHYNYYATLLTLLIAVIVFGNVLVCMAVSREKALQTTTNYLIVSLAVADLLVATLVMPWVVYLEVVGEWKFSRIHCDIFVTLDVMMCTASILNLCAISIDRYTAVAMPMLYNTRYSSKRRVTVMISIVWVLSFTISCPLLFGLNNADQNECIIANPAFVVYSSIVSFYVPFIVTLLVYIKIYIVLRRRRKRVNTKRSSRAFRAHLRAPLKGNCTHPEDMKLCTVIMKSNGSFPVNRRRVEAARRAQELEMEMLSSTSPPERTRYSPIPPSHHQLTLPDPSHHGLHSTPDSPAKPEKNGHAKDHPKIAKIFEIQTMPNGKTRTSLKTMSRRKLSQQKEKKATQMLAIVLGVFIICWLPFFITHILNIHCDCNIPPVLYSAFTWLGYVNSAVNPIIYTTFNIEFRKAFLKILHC

[5] = biological target: D(2) dopamine receptor (Homo sapiens) (UniProt P14416); assay: Tested in vitro for binding activity to Dopamine receptor D2 in field stimulated rabbit ear artery (D2-REA).; details: Oryctolagus cuniculus; target entry is the homologue from another species

Row | p[A]50 [1] | p[A]50 [2] | pKH [3] | pKL [3] | p[A]50 [4] | p[A]50 [5] | SMILES
1 | 7.33 | 6.85 | 9.33 | 7.11 | inactive |  | Oc1nc2c(O)ccc(CCNCCCCCCOCCCCc3ccccc3)c2s1
2 | 7.19 | 6.81 | 8.99 | 6.44 | inactive |  | Oc1nc2c(O)ccc(CCNCCCCCCNCCc3ccccc3)c2s1
3 | 7.95 | 6.08 | 8.61 | 6.48 |  | 8.94 | O=c1[nH]c2c(O)ccc(CCNCCS(=O)(=O)CCCOCCc3ccccc3)c2s1
4 | 7.89 | 7.56 | 9.01 | 6.93 | inactive |  | Oc1nc2c(O)ccc(CCNCCCCCCOCCc3ccccc3)c2s1

Further lines, the compound ahead of its results:

Row | SMILES | p[A]50 [1] | p[A]50 [2] | pKH [3] | pKL [3] | p[A]50 [4] | p[A]50 [5]
5 | OCc1cc(C(O)CNCCCCCCOCCCCc2ccccc2)ccc1O (configuration not stated) | 7.52 | 5.49 |  |  |  | 
6 | CCCN(CCC)CCc1ccc(O)c2nc(O)sc12 | < 5 | 6.03 | 9.34 | 6.85 |  | 9.6
